We go through 3 compounds from PMC2867072 (Chemical communications (Cambridge, England), 2010).

Read-outs that look alike come from different tables or passages of the source.

One experiment concerns the target MMP-9 (gelatinase-B) (Homo sapiens, UniProt P14780). In words: fluorescence-based MMP-9 inhibition assay. It counts as biochemical. The conditions noted are these: for inhibition at 1000 µM: read-out: percent inhibition of MMP-9.
The next experiment deals with MMP-8 (Homo sapiens, UniProt P22894). In words: fluorescence-based MMP-8 inhibition assay. It counts as biochemical. The conditions noted are these: MMP-8, fluorescence based assay.
Sequence of MMP-8 (P22894 101-467, species assumed): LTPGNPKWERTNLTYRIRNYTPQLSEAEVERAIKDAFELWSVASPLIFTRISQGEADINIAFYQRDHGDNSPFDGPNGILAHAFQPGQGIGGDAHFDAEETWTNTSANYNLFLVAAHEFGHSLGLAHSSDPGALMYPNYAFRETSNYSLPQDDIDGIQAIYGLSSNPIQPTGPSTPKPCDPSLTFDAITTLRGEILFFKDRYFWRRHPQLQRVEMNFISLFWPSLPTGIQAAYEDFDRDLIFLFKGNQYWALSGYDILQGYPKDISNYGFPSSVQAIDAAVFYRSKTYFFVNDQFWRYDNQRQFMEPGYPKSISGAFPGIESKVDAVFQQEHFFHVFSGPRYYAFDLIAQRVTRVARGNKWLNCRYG

The IC50 is the concentration that inhibits the measured activity by half. Usually inhibition stands for how much of the control response was suppressed.

Sequence of MMP-9 (gelatinase-B) (P14780 94-707, species assumed): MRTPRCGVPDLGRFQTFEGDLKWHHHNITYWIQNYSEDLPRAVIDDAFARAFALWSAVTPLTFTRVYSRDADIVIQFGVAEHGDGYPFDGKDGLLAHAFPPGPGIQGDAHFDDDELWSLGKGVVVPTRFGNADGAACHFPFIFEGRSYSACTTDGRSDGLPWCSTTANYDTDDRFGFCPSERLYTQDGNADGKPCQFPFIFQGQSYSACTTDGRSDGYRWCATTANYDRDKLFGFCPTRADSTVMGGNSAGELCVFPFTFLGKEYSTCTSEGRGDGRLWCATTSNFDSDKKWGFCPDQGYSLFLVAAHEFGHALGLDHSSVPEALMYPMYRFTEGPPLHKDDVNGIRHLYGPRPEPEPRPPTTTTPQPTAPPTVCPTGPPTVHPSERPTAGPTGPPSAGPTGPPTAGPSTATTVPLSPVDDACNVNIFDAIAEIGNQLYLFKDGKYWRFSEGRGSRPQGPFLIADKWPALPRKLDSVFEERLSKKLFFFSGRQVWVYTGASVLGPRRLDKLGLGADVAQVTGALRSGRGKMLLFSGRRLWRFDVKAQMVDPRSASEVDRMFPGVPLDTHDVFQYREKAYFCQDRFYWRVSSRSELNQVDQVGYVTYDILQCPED

On to `Cc1occc(=O)c1O` [Compound 3, 3-hydroxy-2-methyl-4-pyrone], for which, on MMP-9 (gelatinase-B), the half-inhibitory concentration (IC50) came out at 4030 µM and the inhibition at 1000 µM is roughly 50%.

Turning to `O=C(NCc1ccc(-c2ccccc2)cc1)c1cccc(=O)n1O` [Compound 7, 1,2-HOPO-2], the IC50 was determined as 2.7 µM against MMP-9 (gelatinase-B) (MMP-9, fluorescence based assay) and 75 nM at MMP-8.

Turning to `Cc1occc(=S)c1O` [Compound 5, 3-hydroxy-2-methyl-4-pyrothione], on MMP-9 (gelatinase-B), the 50% inhibitory concentration (IC50) came to 138 µM and the inhibition at 1000 µM was roughly 50%.
